Source: patent publication US20240209028A1, “CNP COMPOUNDS” (priority 2022, published 2024)
Starred links: 1 amine or outer side, 2 acyl side, 3 side chain; linkers in the order of their positions; H or OH if unused. Positions of bridges follow the written chain, without caps; N, C: chain ends. Residues, ends and D or L forms follow the SMILES beside them. *: point of attachment. C18 diacid = O=C(O)CCCCCCCCCCCCCCCCC(=O)*; γGlu = O=C(O)[C@H](CCC(=O)[*:2])N[*:1]; AEEA = NCCOCCOCC(=O)O

Target: T1, human natriuretic peptide receptor 2 (hNPR2) (Homo sapiens, UniProt P20594)
T1 construct: expressed in transfected cells; host or cells: HEK293 (ATCC CRL-1573), clone 35, co-transfected with pGloSensor-42F
T1 sequence (P20594 23-1047): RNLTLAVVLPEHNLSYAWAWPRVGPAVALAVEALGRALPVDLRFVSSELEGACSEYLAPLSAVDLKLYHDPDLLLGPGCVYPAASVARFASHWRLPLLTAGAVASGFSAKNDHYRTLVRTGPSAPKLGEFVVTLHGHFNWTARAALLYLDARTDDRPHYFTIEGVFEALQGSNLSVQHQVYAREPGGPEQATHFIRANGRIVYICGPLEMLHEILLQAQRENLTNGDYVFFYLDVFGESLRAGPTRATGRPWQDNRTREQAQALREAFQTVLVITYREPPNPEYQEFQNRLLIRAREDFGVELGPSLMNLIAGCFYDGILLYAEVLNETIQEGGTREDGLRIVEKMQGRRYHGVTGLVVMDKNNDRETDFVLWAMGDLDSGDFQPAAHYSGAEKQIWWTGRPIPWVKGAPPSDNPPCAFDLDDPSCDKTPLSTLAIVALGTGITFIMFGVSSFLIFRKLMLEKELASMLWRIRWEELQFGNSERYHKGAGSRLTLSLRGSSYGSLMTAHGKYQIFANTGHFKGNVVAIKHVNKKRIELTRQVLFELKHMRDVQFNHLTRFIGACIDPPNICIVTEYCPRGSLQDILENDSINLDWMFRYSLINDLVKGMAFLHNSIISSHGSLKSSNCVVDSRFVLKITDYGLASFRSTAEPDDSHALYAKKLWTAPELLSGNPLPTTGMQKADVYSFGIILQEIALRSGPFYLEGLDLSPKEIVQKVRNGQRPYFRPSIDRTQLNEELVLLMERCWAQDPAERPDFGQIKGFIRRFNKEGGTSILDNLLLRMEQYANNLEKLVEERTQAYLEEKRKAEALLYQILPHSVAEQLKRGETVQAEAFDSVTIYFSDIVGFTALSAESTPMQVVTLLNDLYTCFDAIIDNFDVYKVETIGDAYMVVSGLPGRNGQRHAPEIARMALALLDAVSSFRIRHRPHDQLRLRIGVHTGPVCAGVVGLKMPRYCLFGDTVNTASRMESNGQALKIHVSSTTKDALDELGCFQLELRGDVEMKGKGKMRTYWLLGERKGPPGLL
Assay: In vitro hNPR2 activity assay (cGMP GloSensor reporter, HEK293)
Assay type: cell-based
Details: potency relative to CNP22 (0065)
In short: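 Potency is the EC50 from a four-parameter logistic fit, also expressed relative to the in-plate CNP22 control (×100), with at least two replicates. Compounds (ten concentrations, […], HSA-free diluent with 1% OVA, 0.01% Tween20) were incubated 30 min at 37 °C on HEK293 cells co-expressing hNPR2 and a GloSensor cGMP luciferase. Luminescence detected with Bright-Glo.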

| SMILES | hNPR2 0% HSA. [EC50% rel CNP] [%] |
| --- | --- |
| CC[C@H](C)[C@@H]1NC(=O)[C@H](CCCNC(=N)N)NC(=O)[C@H](CC(=O)O)NC(=O)[C@H](CC(C)C)NC(=O)[C@@H]2CCCN2C(=O)[C@H](CC(C)C)NC(=O)CNC(=O)[C@H](Cc2ccccc2)NC(=O)[C@@H](NC(=O)CNC(=O)[C@H](CCC(N)=O)NC(=O)[C@H](CO)NC(=O)[C@H](CO)NC(=O)CNC(=O)[C@H](Cc2c[nH]cn2)NC(=O)[C@H](CCCCN)NC(=O)[C@H](CCC(N)=O)NC(=O)[C@H](C)NC(=O)CNC(=O)[C@H](Cc2c[nH]cn2)NC(=O)[C@H](Cc2ccc(O)cc2)NC(=O)[C@H](CCCCN)NC(=O)[C@H](Cc2c[nH]cn2)NC(=O)[C@H](C)NC(=O)[C@H](CCC(N)=O)NC(=O)[C@@H]2CCCN2C(=O)[C@H](Cc2c[nH]cn2)NC(=O)[C@H](CCC(=O)O)NC(=O)[C@H](CCC(N)=O)NC(=O)COCCOCCNC(=O)COCCOCCNC(=O)CC[C@H](NC(=O)CC[C@H](NC(=O)CCCCCCCCCCCCCCCCC(=O)O)C(=O)O)C(=O)O)CSSC[C@@H](C(=O)O)NC(=O)CNC(=O)[C@H](CC(C)C)NC(=O)CNC(=O)[C@H](CO)NC(=O)[C@H](CC(C)C)NC(=O)[C@H](CO)NC(=O)CNC1=O [compound 1383] ({C18 diacid-γGlu-γGlu-AEEA-AEEA}-QEHPQAHKYHGAQKHGSSQGCFGLPLDRIGSLSGLGC-OH; disulfide 21-37) | 43.1 |
| CC[C@H](C)[C@@H]1NC(=O)[C@H](CCCNC(=N)N)NC(=O)[C@H](CC(=O)O)NC(=O)[C@H](CC(C)C)NC(=O)[C@@H]2CCCN2C(=O)[C@H](CC(C)C)NC(=O)CNC(=O)[C@H](Cc2ccccc2)NC(=O)[C@@H](NC(=O)CNC(=O)[C@H](CCCCN)NC(=O)[C@H](CO)NC(=O)[C@H](CC(C)C)NC(=O)CNC(=O)[C@H](CCCCN)NC(=O)[C@H](CCCCN)NC(=O)[C@H](CCC(N)=O)NC(=O)[C@H](C)NC(=O)CNC(=O)[C@H](CCC(=O)O)NC(=O)[C@H](Cc2ccc(O)cc2)NC(=O)[C@H](CCCCN)NC(=O)[C@H](CCCNC(=N)N)NC(=O)[C@H](C)NC(=O)CC[C@H](NC(=O)CC[C@H](NC(=O)CC[C@H](NC(=O)CC[C@H](NC(=O)CCCCCCCCCCCCCCCCC(=O)O)C(=O)O)C(=O)O)C(=O)O)C(=O)O)CSSC[C@@H](C(=O)O)NC(=O)CNC(=O)[C@H](CC(C)C)NC(=O)CNC(=O)[C@H](CO)NC(=O)[C@H](CC(C)C)NC(=O)[C@H](CO)NC(=O)CNC1=O [compound 1385] ({C18 diacid-γGlu-γGlu-γGlu-γGlu}-ARKYEGAQKKGLSKGCFGLPLDRIGSLSGLGC-OH; disulfide 16-32) | 30.7 |
| CC[C@H](C)[C@@H]1NC(=O)[C@H](CCCNC(=N)N)NC(=O)[C@H](CC(=O)O)NC(=O)[C@H](CC(C)C)NC(=O)[C@@H]2CCCN2C(=O)[C@H](CC(C)C)NC(=O)CNC(=O)[C@H](Cc2ccccc2)NC(=O)[C@@H](NC(=O)CNC(=O)[C@H](CO)NC(=O)[C@H](CO)NC(=O)[C@H](CC(C)C)NC(=O)CNC(=O)[C@H](CCCCN)NC(=O)[C@H](CCCCN)NC(=O)[C@H](CCC(N)=O)NC(=O)[C@H](C)NC(=O)CNC(=O)[C@H](CCCCN)NC(=O)[C@H](Cc2ccc(O)cc2)NC(=O)CNC(=O)CNC(=O)CNC(=O)CC[C@H](NC(=O)CC[C@H](NC(=O)CC[C@H](NC(=O)CC[C@H](NC(=O)CCCCCCCCCCCCCCCCC(=O)O)C(=O)O)C(=O)O)C(=O)O)C(=O)O)CSSC[C@@H](C(=O)O)NC(=O)CNC(=O)[C@H](CC(C)C)NC(=O)CNC(=O)[C@H](CO)NC(=O)[C@H](CC(C)C)NC(=O)[C@H](CO)NC(=O)CNC1=O [compound 1387] ({C18 diacid-γGlu-γGlu-γGlu-γGlu}-GGGYKGAQKKGLSSGCFGLPLDRIGSLSGLGC-OH; disulfide 16-32; C-terminus assumed) | 20.6 |
| CC[C@H](C)[C@@H]1NC(=O)[C@H](CCCNC(=N)N)NC(=O)[C@H](CC(=O)O)NC(=O)[C@H](CC(C)C)NC(=O)[C@@H]2CCCN2C(=O)[C@H](CC(C)C)NC(=O)CNC(=O)[C@H](Cc2ccccc2)NC(=O)[C@@H](NC(=O)CNC(=O)[C@H](CCCCN)NC(=O)[C@H](CO)NC(=O)[C@H](CC(C)C)NC(=O)CNC(=O)[C@H](CCCCN)NC(=O)[C@H](CCCCN)NC(=O)[C@H](CCC(N)=O)NC(=O)[C@H](C)NC(=O)CNC(=O)[C@H](CCCCN)NC(=O)[C@H](Cc2ccc(O)cc2)NC(=O)CNC(=O)CNC(=O)CNC(=O)CC[C@H](NC(=O)CC[C@H](NC(=O)CC[C@H](NC(=O)CC[C@H](NC(=O)CCCCCCCCCCCCCCCCC(=O)O)C(=O)O)C(=O)O)C(=O)O)C(=O)O)CSSC[C@@H](C(=O)O)NC(=O)CNC(=O)[C@H](CC(C)C)NC(=O)CNC(=O)[C@H](CO)NC(=O)[C@H](CC(C)C)NC(=O)[C@H](CO)NC(=O)CNC1=O [compound 1388] ({C18 diacid-γGlu-γGlu-γGlu-γGlu}-GGGYKGAQKKGLSKGCFGLPLDRIGSLSGLGC-OH; disulfide 16-32) | 23.5 |
| CC[C@H](C)[C@@H]1NC(=O)[C@H](CCCNC(=N)N)NC(=O)[C@H](CC(=O)O)NC(=O)[C@H](CC(C)C)NC(=O)[C@@H]2CCCN2C(=O)[C@H](CC(C)C)NC(=O)CNC(=O)[C@H](Cc2ccccc2)NC(=O)[C@@H](NC(=O)CNC(=O)[C@H](CO)NC(=O)[C@H](CO)NC(=O)[C@H](CC(C)C)NC(=O)CNC(=O)[C@H](CCCCN)NC(=O)[C@H](CCCCN)NC(=O)[C@H](CCC(N)=O)NC(=O)[C@H](C)NC(=O)CNC(=O)[C@H](CCC(=O)O)NC(=O)[C@H](Cc2ccc(O)cc2)NC(=O)[C@H](CCCCN)NC(=O)[C@H](CCCNC(=N)N)NC(=O)[C@H](C)NC(=O)[C@H](CCC(N)=O)NC(=O)[C@@H]2CCCN2C(=O)[C@H](Cc2c[nH]cn2)NC(=O)[C@H](CCC(=O)O)NC(=O)[C@H](CCC(N)=O)NC(=O)CC[C@H](NC(=O)CC[C@H](NC(=O)CC[C@H](NC(=O)CC[C@H](NC(=O)CCCCCCCCCCCCCCCCC(=O)O)C(=O)O)C(=O)O)C(=O)O)C(=O)O)CSSC[C@@H](C(=O)O)NC(=O)CNC(=O)[C@H](CC(C)C)NC(=O)CNC(=O)[C@H](CO)NC(=O)[C@H](CC(C)C)NC(=O)[C@H](CO)NC(=O)CNC1=O [compound 1390] ({C18 diacid-γGlu-γGlu-γGlu-γGlu}-QEHPQARKYEGAQKKGLSSGCFGLPLDRIGSLSGLGC-OH; disulfide 21-37; C-terminus assumed) | 84.6 |
| CC[C@H](C)[C@@H]1NC(=O)[C@H](CCCNC(=N)N)NC(=O)[C@H](CC(=O)O)NC(=O)[C@H](CC(C)C)NC(=O)[C@@H]2CCCN2C(=O)[C@H](CC(C)C)NC(=O)CNC(=O)[C@H](Cc2ccccc2)NC(=O)[C@@H](NC(=O)CNC(=O)[C@H](CCCCN)NC(=O)[C@H](CO)NC(=O)CNC(=O)CNC(=O)[C@H](CCCCN)NC(=O)[C@H](CCCCN)NC(=O)[C@H](CCC(N)=O)NC(=O)[C@H](C)NC(=O)CNC(=O)[C@H](CCC(=O)O)NC(=O)[C@H](Cc2ccc(O)cc2)NC(=O)COCCOCCNC(=O)COCCOCCNC(=O)COCCOCCNC(=O)COCCOCCNC(=O)CC[C@H](NC(=O)CCCCCCCCCCCCCCCCC(=O)O)C(=O)O)CSSC[C@@H](C(=O)O)NC(=O)CNC(=O)[C@H](CC(C)C)NC(=O)CNC(=O)[C@H](CO)NC(=O)[C@H](CC(C)C)NC(=O)[C@H](CO)NC(=O)CNC1=O [compound 1391] ({C18 diacid-γGlu-AEEA-AEEA-AEEA-AEEA}-YEGAQKKGGSKGCFGLPLDRIGSLSGLGC-OH; disulfide 13-29) | 37.9 |
